Assay results taken from patent US20250228865A1, “COMPOUNDS FOR ENHANCING READ THROUGH OF GENES CONTAINING PREMATURE TERMINATION CODONS AND METHODS FOR MAKING AND USING THE SAME” (Sanofi US Services Inc., priority 2022, published 2025).

Assays:
[1] = system: recombinant human CFTR carrying the premature stop codon (PTC) mutation R1162X; assay: CFTR-PTC mutant translation readthrough, Nanoluc tagged CFTR luminescence (R1162X cell line); assay type: cell-based; conditions: for CFTR R1162X ACTIVITY Fold 10 μM G-418: fold over 10 μM G-418, in combination with G418; for EC50: in combination with G418, 16HBE cells, read-out: CFTR R1162X ACTIVITY EC50
Procedure: (§1) 16HBE human bronchial epithelial cells (stably over-expressing recombinant human CFTR carrying the premature stop codon (PTC) mutation G542X or R1162X along with a Nanoluc tag incorporated into the CFTR channel within extracellular loop 4 in G542X cell line or C-terminus end in the R1162X cell line were seeded at 0.01×10^6 cells/well and grown in Minimal Essential Medium (MEM) as monolayers in 384 well plates and incubated at 37° C. with 5% CO2. Media was changed every other day until day of experiment. Agents to be evaluated were made up in separate 384 well, polypropylene plates at a 2X the final desired test concentration. Test agent 10-point concentration response curves were constructed using the Labcyte Echo 555 acoustic dispenser. Test agents were typically tested at a max final test concentrations of 50 μM with sequential 2-fold lower concentrations below this in the absence or presence of a fixed 10 μM concentration of the aminoglycoside G418 made up in MEM growth media (reduced Serum Media+HEPES Buffer+2.4 g/L Sodium Bicarbonate+L-Glutamine containing CFTR corrector VX-809 (3 μM)). Treatment with 10 μM G418 alone produced approximately 10% of the response observed with a maximally effective concentration of G418 (typically 125-250 μM). Test agent effects in presence of 10 μM G418 were compared to control wells on the plate containing a maximally effective concentration of G418 (typically 125-250 μM) made up in the same media. 25 ul of test agents/control solutions were transferred from the compound plate to the cell plate, which already contained 25 ul/well of cell plating media, using an Integra Viaflo 384. Cell plates were incubated with the compounds for 48 hours, at which time they were processed using Nanoluc luminescence Kit (Promega Nano-Glo Live Cell Assay System) to measure CFTR-PTC mutant translation readthrough. Luminescence was measured as follows. Cell plates were removed from the incubator and allowed to equilibrate to room temperature for 20 minutes. Media was removed from all wells and the plates were blotted to remove excess remaining volume. Nano-Glo Live Cell Substrate was diluted 1:20 in the appropriate amount of Nano-Glo LCS Dilution Buffer to accommodate the number of cell plates being tested. The substrate/dilution buffer mix was then diluted 1:3 with MEM media to make the appropriate volume for the number of plates being tested. The substrate/dilution buffer/OptiMEM mix was added across the Nanoluc testing cell plates and the plates were read for luminescence signal immediately. Test agent effects on CFTR translation readthrough was determined by normalizing any observed increase in luminescence induced by 48 hours pretreatment with test compound to the magnitude of luminescence increase produced by pretreatment with a maximally effective concentration of the reference readthrough enhancing agent G418 (125-250 μM).

[2] = system: recombinant human CFTR carrying the premature stop codon (PTC) mutation G542X; assay: CFTR-PTC mutant translation readthrough, Nanoluc tagged CFTR luminescence (G542X cell line); assay type: cell-based; conditions: in combination with G418, G542X cell line; for CFTR G542X ACTIVITY Fold 10 μM G-418: fold over 10 μM G-418; for EC50: 16HBE cells
Procedure: as §1

EC50 [1] [nM]	EC50 [2] [nM]	Compound	CFTR R1162X ACTIVITY Fold 10 μM G-418 [1]	CFTR G542X ACTIVITY Fold 10 μM G-418 [2]
1000 to 10000	1000 to 10000	NC(=O)C1CN(c2ncc(OCc3c(Cl)cccc3C(F)(F)F)cn2)CCO1 (centres unmarked)	A′ (A′ = ≥10X)	A′ (A′ = ≥10X)
1000 to 10000	< 1000	OC[C@@H]1CN(c2ncc(OCc3c(Cl)cccc3Cl)cn2)CC[C@@H]1O (racemic)	A′ (A′ = ≥10X)	A′ (A′ = ≥10X)
< 1000	< 1000	Cc1cccc(C(F)(F)F)c1COc1cnc(N2CCC(CO)(CO)CC2)nc1	A′ (A′ = ≥10X)	A′ (A′ = ≥10X)
1000 to 10000	1000 to 10000	O=C(O)C1CCN(c2ncc(OCc3c(Cl)cccc3C(F)(F)F)cn2)C1 (centres unmarked)	B′ (B′ = ≥5X to <10X)	A′ (A′ = ≥10X)
1000 to 10000	< 1000	Cc1cccc(C(F)(F)F)c1COc1cnc(N2CCC(N)CC2)nc1	A′ (A′ = ≥10X)	A′ (A′ = ≥10X)
1000 to 10000	1000 to 10000	CC(=O)N[C@H]1CCN(c2ncc(OCc3c(Cl)cccc3Cl)cn2)C1	A′ (A′ = ≥10X)	A′ (A′ = ≥10X)
1000 to 10000	1000 to 10000	O=C1CN(c2ncc(OCc3c(Cl)cccc3Cl)cn2)CCN1CCO	A′ (A′ = ≥10X)	A′ (A′ = ≥10X)
< 1000	< 1000	Cc1cccc(C(F)(F)F)c1COc1cnc(-n2nnc3ccccc32)nc1 [1-[5-[[2-methyl-6-(trifluoromethyl)phenyl]methoxy]pyrimidin-2-yl]benzotriazole]	A′ (A′ = ≥10X)	A′ (A′ = ≥10X)
> 10000	> 10000	CC(=O)N[C@H](CO)C(=O)Nc1ccc(OCc2c(Cl)cccc2Cl)cn1	C′ (C′ = <5X)	C′ (C′ = <5X)
< 1000	< 1000	Cc1cccc(C(F)(F)F)c1COc1cnc(N2CCO[C@H](CO)C2)nc1	A′ (A′ = ≥10X)	A′ (A′ = ≥10X)
> 10000	> 10000	CC(C)C1NC(=O)N(c2ncc(OCc3c(Cl)cccc3Cl)cn2)C1=O (centres unmarked)	B′ (B′ = ≥5X to <10X)	A′ (A′ = ≥10X)
1000 to 10000	1000 to 10000	OCc1nc(-c2ncc(OCc3c(Cl)cccc3Cl)cn2)co1 [[4-[5-[(2,6-dichlorophenyl)methoxy]pyrimidin-2-yl]oxazol-2-yl]methanol]	A′ (A′ = ≥10X)	A′ (A′ = ≥10X)
1000 to 10000	1000 to 10000	OCCN1CCN(c2ncc(OCc3c(Cl)cccc3Cl)cn2)CC1 [2-[4-[5-[(2,6-dichlorophenyl)methoxy]pyrimidin-2-yl]piperazin-1-yl]ethanol]	A′ (A′ = ≥10X)	A′ (A′ = ≥10X)
> 10000	1000 to 10000	C[C@@H](O)[C@@H]1CN(c2ncc(OCc3c(Cl)cccc3Cl)cn2)CCO1 (racemic)	A′ (A′ = ≥10X)	A′ (A′ = ≥10X)
1000 to 10000	< 1000	CN1C(=O)CN(c2ncc(OCc3c(Cl)cccc3C(F)(F)F)cn2)CC1CO (centres unmarked)	C′ (C′ = <5X)	C′ (C′ = <5X)
< 1000	< 1000	FC(F)(F)c1cccc(Cl)c1COc1cnc(-n2ncc(-c3ccccn3)n2)nc1	A′ (A′ = ≥10X)	A′ (A′ = ≥10X)
< 1000	< 1000	OCCC1(O)CCN(c2ncc(OCc3c(Cl)cccc3Cl)cn2)CC1	A′ (A′ = ≥10X)	A′ (A′ = ≥10X)
1000 to 10000	1000 to 10000	OCCn1ccc(Nc2ccc(OCc3c(Cl)cccc3Cl)cn2)n1 [2-[3-[[5-[(2,6-dichlorophenyl)methoxy]-2-pyridyl]amino]pyrazol-1-yl]ethanol]	A′ (A′ = ≥10X)	A′ (A′ = ≥10X)
1000 to 10000	1000 to 10000	Cc1cccc(C(C)(F)F)c1COc1ccc(N2CC(CO)NC2=O)nc1 (centres unmarked)	A′ (A′ = ≥10X)	A′ (A′ = ≥10X)
1000 to 10000	1000 to 10000	Cc1cccc(OC(F)F)c1COc1ccc(-n2cnc(CO)n2)cc1	B′ (B′ = ≥5X to <10X)	B′ (B′ = ≥5X to <10X)
1000 to 10000	1000 to 10000	NC(=O)C1CN(c2ncc(OCc3c(Cl)cccc3Cl)cn2)C1 [1-[5-[(2,6-dichlorophenyl)methoxy]pyrimidin-2-yl]azetidine-3-carboxamide]	A′ (A′ = ≥10X)	B′ (B′ = ≥5X to <10X)
1000 to 10000	1000 to 10000	CC1(C)CN(c2ncc(OCc3c(Cl)cccc3Cl)cn2)CC(CO)O1 (centres unmarked)	A′ (A′ = ≥10X)	A′ (A′ = ≥10X)
1000 to 10000	< 1000	CC(C)C1NC(=O)N(c2ccc(OCc3c(Cl)cccc3C(F)(F)F)cc2)C1=O (centres unmarked)	B′ (B′ = ≥5X to <10X)	A′ (A′ = ≥10X)
1000 to 10000	< 1000	OCc1cc(-c2ccc(OCc3c(Cl)cccc3Cl)cn2)no1 [[3-[5-[(2,6-dichlorophenyl)methoxy]-2-pyridyl]isoxazol-5-yl]methanol]	A′ (A′ = ≥10X)	A′ (A′ = ≥10X)
1000 to 10000	1000 to 10000	Cc1cccc(C(F)(F)F)c1COc1cnc(N2CCS(=O)(=O)C(CO)C2)nc1 (centres unmarked) [2-(hydroxymethyl)-4-(5-{[2-methyl-6-(trifluoromethyl)phenyl]]		C′ (C′ = <5X)
1000 to 10000	1000 to 10000	OCc1cn(-c2ncc(OCc3c(Cl)cccc3Cl)cn2)nn1 [[1-[5-[(2,6-dichlorophenyl)methoxy]pyrimidin-2-yl]triazol-4-yl]methanol]	A′ (A′ = ≥10X)	A′ (A′ = ≥10X)
< 1000	< 1000	Cc1cccc(C(F)(F)F)c1COc1cnc(N2CCC(O)C(F)(F)C2)nc1 (centres unmarked)	A′ (A′ = ≥10X)	C′ (C′ = <5X)
< 1000	< 1000	Cc1cccc(C(F)(F)F)c1COc1cnc(N2CCN(C(N)=O)C(CO)C2)nc1 (centres unmarked)	A′ (A′ = ≥10X)	A′ (A′ = ≥10X)
1000 to 10000	1000 to 10000	NC(=O)[C@@H]1CCN(c2ncc(OCc3c(Cl)cccc3C(F)(F)F)cn2)C1	A′ (A′ = ≥10X)	A′ (A′ = ≥10X)

Compound	EC50 [1] [nM]	EC50 [2] [nM]	CFTR R1162X ACTIVITY Fold 10 μM G-418 [1]	CFTR G542X ACTIVITY Fold 10 μM G-418 [2]
Cc1cccc(C(F)(F)F)c1COc1cnc(N2CC3CC(C2)C3O)nc1 (centres unmarked)	1000 to 10000	1000 to 10000	A′ (A′ = ≥10X)	A′ (A′ = ≥10X)
